In ChEMBL document CHEMBL1130203, “Novel fluoroquinolone antibacterial agents containing oxime-substituted (aminomethyl)pyrrolidines: synthesis and antibacterial activity of 7-(4-(aminomethyl)-3-(methoxyimino)pyrrolidin-1-yl)-1-cyclopropyl-6- fluoro-4-oxo-1,4-dihydro[1,8]naphthyridine-3-carboxylic acid (LB20304)” (J Med Chem, 1997):
≈ marks a conversion by molar mass, not a printed value.

Tested on: Acinetobacter calcoaceticus
Assay: Minimum inhibitory concentration (MIC) against Acinetobacter calcoaceticus 15473
Assay type: functional
Details: Acinetobacter calcoaceticus; read-out: MIC

Compound	MIC
CC(C)O/N=C1\CN(c2nc3c(cc2F)c(=O)c(C(=O)O)cn3C2CC2)CC1CN (stereo unspecified)	0.031 µg/mL (≈ 0.0743 µM)

Tested on: Acinetobacter calcoaceticus
Assay: Minimum inhibitory concentration (MIC) against Acinetobacter calcoaceticus 5473
Assay type: functional
Details: not given

Compound	MIC
CO/N=C1\CN(c2cc3c(cc2F)c(=O)c(C(=O)O)cn3C2CC2)CC1CN (stereo unspecified)	0.13 µg/mL (≈ 0.335 µM)
CO/N=C1\CN(c2c(F)c(N)c3c(=O)c(C(=O)O)cn(C4CC4)c3c2F)CC1CN (stereo unspecified)	0.031 µg/mL (≈ 0.0736 µM)
CO/N=C1\CN(c2c(F)cc3c(=O)c(C(=O)O)cn(C4CC4)c3c2Cl)CC1CN (stereo unspecified)	0.25 µg/mL (≈ 0.591 µM)

Tested on: Bacillus subtilis
Assay: Minimum inhibitory concentration (MIC) against Bacillus subtilis ATCC 6633
Assay type: functional
Details: not given

Compound	MIC
CO/N=C1\CN(c2cc3c(cc2F)c(=O)c(C(=O)O)cn3C2CC2)CC1CN (stereo unspecified)	< 0.008 µg/mL
CO/N=C1\CN(c2c(F)c(N)c3c(=O)c(C(=O)O)cn(C4CC4)c3c2F)CC1CN (stereo unspecified)	< 0.008 µg/mL
CO/N=C1\CN(c2c(F)cc3c(=O)c(C(=O)O)cn(C4CC4)c3c2Cl)CC1CN (stereo unspecified)	0.016 µg/mL (≈ 0.0378 µM)
CC(C)O/N=C1\CN(c2nc3c(cc2F)c(=O)c(C(=O)O)cn3C2CC2)CC1CN (stereo unspecified)	< 0.008 µg/mL

Tested on: Escherichia coli
Assay: Minimum inhibitory concentration (MIC) against Escherichia coli 10536
Assay type: functional
Details: not given

Compound	MIC
CO/N=C1\CN(c2cc3c(cc2F)c(=O)c(C(=O)O)cn3C2CC2)CC1CN (stereo unspecified)	< 0.008 µg/mL
CO/N=C1\CN(c2c(F)c(N)c3c(=O)c(C(=O)O)cn(C4CC4)c3c2F)CC1CN (stereo unspecified)	< 0.008 µg/mL
CO/N=C1\CN(c2c(F)cc3c(=O)c(C(=O)O)cn(C4CC4)c3c2Cl)CC1CN (stereo unspecified)	0.031 µg/mL (≈ 0.0733 µM)
CC(C)O/N=C1\CN(c2nc3c(cc2F)c(=O)c(C(=O)O)cn3C2CC2)CC1CN (stereo unspecified)	< 0.008 µg/mL

Tested on: Escherichia coli
Assay: Minimum inhibitory concentration (MIC) against Escherichia coli 3190Y
Assay type: functional
Details: not given

Compound	MIC
CO/N=C1\CN(c2cc3c(cc2F)c(=O)c(C(=O)O)cn3C2CC2)CC1CN (stereo unspecified)	< 0.008 µg/mL
CO/N=C1\CN(c2c(F)c(N)c3c(=O)c(C(=O)O)cn(C4CC4)c3c2F)CC1CN (stereo unspecified)	0.016 µg/mL (≈ 0.038 µM)
CO/N=C1\CN(c2c(F)cc3c(=O)c(C(=O)O)cn(C4CC4)c3c2Cl)CC1CN (stereo unspecified)	0.016 µg/mL (≈ 0.0378 µM)
CC(C)O/N=C1\CN(c2nc3c(cc2F)c(=O)c(C(=O)O)cn3C2CC2)CC1CN (stereo unspecified)	< 0.008 µg/mL

Tested on: Escherichia coli
Assay: Minimum inhibitory concentration (MIC) against Escherichia coli TEM9 2639E
Assay type: functional
Details: Escherichia coli; read-out: MIC

Compound	MIC
CO/N=C1\CN(c2cc3c(cc2F)c(=O)c(C(=O)O)cn3C2CC2)CC1CN (stereo unspecified)	0.031 µg/mL (≈ 0.0798 µM)
CO/N=C1\CN(c2c(F)c(N)c3c(=O)c(C(=O)O)cn(C4CC4)c3c2F)CC1CN (stereo unspecified)	0.016 µg/mL (≈ 0.038 µM)
CO/N=C1\CN(c2c(F)cc3c(=O)c(C(=O)O)cn(C4CC4)c3c2Cl)CC1CN (stereo unspecified)	0.25 µg/mL (≈ 0.591 µM)
CC(C)O/N=C1\CN(c2nc3c(cc2F)c(=O)c(C(=O)O)cn3C2CC2)CC1CN (stereo unspecified)	0.063 µg/mL (≈ 0.151 µM)

Tested on: Klebsiella aerogenes
Assay: Minimum inhibitory concentration (MIC) against Klebsiella aerogenes 1082E
Assay type: functional
Details: Klebsiella aerogenes; read-out: MIC

Compound	MIC
CO/N=C1\CN(c2cc3c(cc2F)c(=O)c(C(=O)O)cn3C2CC2)CC1CN (stereo unspecified)	0.031 µg/mL (≈ 0.0798 µM)
CO/N=C1\CN(c2c(F)c(N)c3c(=O)c(C(=O)O)cn(C4CC4)c3c2F)CC1CN (stereo unspecified)	0.016 µg/mL (≈ 0.038 µM)
CO/N=C1\CN(c2c(F)cc3c(=O)c(C(=O)O)cn(C4CC4)c3c2Cl)CC1CN (stereo unspecified)	0.25 µg/mL (≈ 0.591 µM)
CC(C)O/N=C1\CN(c2nc3c(cc2F)c(=O)c(C(=O)O)cn3C2CC2)CC1CN (stereo unspecified)	0.13 µg/mL (≈ 0.311 µM)

Tested on: Pseudomonas aeruginosa
Assay: Minimum inhibitory concentration (MIC) against Pseudomonas aeruginosa 1912E
Assay type: functional
Details: Pseudomonas aeruginosa; read-out: MIC

Compound	MIC
CO/N=C1\CN(c2cc3c(cc2F)c(=O)c(C(=O)O)cn3C2CC2)CC1CN (stereo unspecified)	0.25 µg/mL (≈ 0.644 µM)
CO/N=C1\CN(c2c(F)c(N)c3c(=O)c(C(=O)O)cn(C4CC4)c3c2F)CC1CN (stereo unspecified)	0.25 µg/mL (≈ 0.593 µM)
CO/N=C1\CN(c2c(F)cc3c(=O)c(C(=O)O)cn(C4CC4)c3c2Cl)CC1CN (stereo unspecified)	1 µg/mL (≈ 2.36 µM)
CC(C)O/N=C1\CN(c2nc3c(cc2F)c(=O)c(C(=O)O)cn3C2CC2)CC1CN (stereo unspecified)	1 µg/mL (≈ 2.4 µM)

Tested on: Staphylococcus aureus
Assay: Minimum inhibitory concentration (MIC) against Staphylococcus aureus 241
Assay type: functional
Details: Staphylococcus aureus; read-out: MIC

Compound	MIC
CO/N=C1\CN(c2cc3c(cc2F)c(=O)c(C(=O)O)cn3C2CC2)CC1CN (stereo unspecified)	4 µg/mL (≈ 10.3 µM)
CO/N=C1\CN(c2c(F)c(N)c3c(=O)c(C(=O)O)cn(C4CC4)c3c2F)CC1CN (stereo unspecified)	0.25 µg/mL (≈ 0.593 µM)
CO/N=C1\CN(c2c(F)cc3c(=O)c(C(=O)O)cn(C4CC4)c3c2Cl)CC1CN (stereo unspecified)	1 µg/mL (≈ 2.36 µM)
CC(C)O/N=C1\CN(c2nc3c(cc2F)c(=O)c(C(=O)O)cn3C2CC2)CC1CN (stereo unspecified)	2 µg/mL (≈ 4.79 µM)

Tested on: Staphylococcus aureus
Assay: Minimum inhibitory concentration (MIC) against Staphylococcus aureus 6538p.
Assay type: functional
Details: not given

Compound	MIC
CO/N=C1\CN(c2cc3c(cc2F)c(=O)c(C(=O)O)cn3C2CC2)CC1CN (stereo unspecified)	0.008 µg/mL (≈ 0.0206 µM)
CO/N=C1\CN(c2c(F)c(N)c3c(=O)c(C(=O)O)cn(C4CC4)c3c2F)CC1CN (stereo unspecified)	< 0.008 µg/mL
CO/N=C1\CN(c2c(F)cc3c(=O)c(C(=O)O)cn(C4CC4)c3c2Cl)CC1CN (stereo unspecified)	0.031 µg/mL (≈ 0.0733 µM)
CC(C)O/N=C1\CN(c2nc3c(cc2F)c(=O)c(C(=O)O)cn3C2CC2)CC1CN (stereo unspecified)	< 0.008 µg/mL

Tested on: Staphylococcus epidermidis
Assay: Minimum inhibitory concentration (MIC) against Staphylococcus epidermidis 887E
Assay type: functional
Details: not given

Compound	MIC
CO/N=C1\CN(c2cc3c(cc2F)c(=O)c(C(=O)O)cn3C2CC2)CC1CN (stereo unspecified)	0.016 µg/mL (≈ 0.0412 µM)
CO/N=C1\CN(c2c(F)c(N)c3c(=O)c(C(=O)O)cn(C4CC4)c3c2F)CC1CN (stereo unspecified)	< 0.008 µg/mL
CO/N=C1\CN(c2c(F)cc3c(=O)c(C(=O)O)cn(C4CC4)c3c2Cl)CC1CN (stereo unspecified)	0.031 µg/mL (≈ 0.0733 µM)
CC(C)O/N=C1\CN(c2nc3c(cc2F)c(=O)c(C(=O)O)cn3C2CC2)CC1CN (stereo unspecified)	< 0.008 µg/mL

Tested on: Staphylococcus epidermidis
Assay: Minimum inhibitory concentration (MIC) against Staphylococcus epidermidis 178
Assay type: functional
Details: Staphylococcus epidermidis; read-out: MIC

Compound	MIC
CO/N=C1\CN(c2cc3c(cc2F)c(=O)c(C(=O)O)cn3C2CC2)CC1CN (stereo unspecified)	4 µg/mL (≈ 10.3 µM)
CO/N=C1\CN(c2c(F)c(N)c3c(=O)c(C(=O)O)cn(C4CC4)c3c2F)CC1CN (stereo unspecified)	0.25 µg/mL (≈ 0.593 µM)
CO/N=C1\CN(c2c(F)cc3c(=O)c(C(=O)O)cn(C4CC4)c3c2Cl)CC1CN (stereo unspecified)	1 µg/mL (≈ 2.36 µM)
CC(C)O/N=C1\CN(c2nc3c(cc2F)c(=O)c(C(=O)O)cn3C2CC2)CC1CN (stereo unspecified)	1 µg/mL (≈ 2.4 µM)

Tested on: Staphylococcus aureus
Assay: Minimum inhibitory concentration (MIC) against Staphylococcus aureus giorgio
Assay type: functional
Details: not given

Compound	MIC
CO/N=C1\CN(c2cc3c(cc2F)c(=O)c(C(=O)O)cn3C2CC2)CC1CN (stereo unspecified)	0.016 µg/mL (≈ 0.0412 µM)
CO/N=C1\CN(c2c(F)c(N)c3c(=O)c(C(=O)O)cn(C4CC4)c3c2F)CC1CN (stereo unspecified)	< 0.008 µg/mL
CO/N=C1\CN(c2c(F)cc3c(=O)c(C(=O)O)cn(C4CC4)c3c2Cl)CC1CN (stereo unspecified)	0.016 µg/mL (≈ 0.0378 µM)
CC(C)O/N=C1\CN(c2nc3c(cc2F)c(=O)c(C(=O)O)cn3C2CC2)CC1CN (stereo unspecified)	< 0.008 µg/mL

Tested on: Enterococcus faecalis
Assay: Minimum inhibitory concentration (MIC) against Streptococcus faecalis 29212
Assay type: functional
Details: Enterococcus faecalis; read-out: MIC

Compound	MIC
CO/N=C1\CN(c2cc3c(cc2F)c(=O)c(C(=O)O)cn3C2CC2)CC1CN (stereo unspecified)	0.031 µg/mL (≈ 0.0798 µM)
CO/N=C1\CN(c2c(F)c(N)c3c(=O)c(C(=O)O)cn(C4CC4)c3c2F)CC1CN (stereo unspecified)	0.016 µg/mL (≈ 0.038 µM)
CO/N=C1\CN(c2c(F)cc3c(=O)c(C(=O)O)cn(C4CC4)c3c2Cl)CC1CN (stereo unspecified)	0.13 µg/mL (≈ 0.307 µM)
CC(C)O/N=C1\CN(c2nc3c(cc2F)c(=O)c(C(=O)O)cn3C2CC2)CC1CN (stereo unspecified)	0.063 µg/mL (≈ 0.151 µM)

Tested on: Enterobacter cloacae
Assay: Minimum inhibitory concentration (MIC) against Enterobacter cloacae P99
Assay type: functional
Details: not given

Compound	MIC
CO/N=C1\CN(c2cc3c(cc2F)c(=O)c(C(=O)O)cn3C2CC2)CC1CN (stereo unspecified)	0.008 µg/mL (≈ 0.0206 µM)
CO/N=C1\CN(c2c(F)c(N)c3c(=O)c(C(=O)O)cn(C4CC4)c3c2F)CC1CN (stereo unspecified)	< 0.008 µg/mL
CO/N=C1\CN(c2c(F)cc3c(=O)c(C(=O)O)cn(C4CC4)c3c2Cl)CC1CN (stereo unspecified)	0.063 µg/mL (≈ 0.149 µM)
CC(C)O/N=C1\CN(c2nc3c(cc2F)c(=O)c(C(=O)O)cn3C2CC2)CC1CN (stereo unspecified)	< 0.008 µg/mL
